Experimental data published in patent US20220178927A1, “BIOMARKERS FOR SELINEXOR” (Karyopharm Therapeutics Inc., priority 2019, published 2022).

Columns and labels:
[1] = test system: penta-exposed, triple-class refractory MM; experiment: pivotal STORM Part 2 study; assay type: in vivo
Excerpt: Eligible patients had measurable MM by International Myeloma Working Group (IMWG) criteria (See, Durie B G, Harousseau J L, Miguel J S, et al. International uniform response criteria for multiple myeloma. Leukemia 2006;20:1467-73. Rajkumar S V, Harousseau J L, Durie B, et al. Consensus recommendations for the uniform reporting of clinical trials: report of the International Myeloma Workshop Consensus Panel. Blood 2011;117:4691-5); prior treatment with bortezomib, carfilzomib, lenalidomide, pomalidomide, daratumumab, glucocorticoids, and an alkylating agent; and had disease refractory to at least 1 IMiD (lenalidomide and pomalidomide), 1 PI (bortezomib or carfilzomib), daratumumab, glucocorticoids and to their last regimen. Refractory disease was defined as progression during or within 60 days after completion of therapy, or <25% response to therapy.19, 20 Eastern Cooperative Oncology Group performance status of 0-2, adequate hepatic function, renal function, and hematopoietic function were required. Systemic light chain amyloidosis, active central nervous system involvement, grade≥3 peripheral or grade≥2 painful neuropathy were exclusion criteria.
Oral selinexor 80 mg in combination with dexamethasone 20 mg was administered on days 1 and 3, weekly, in 4-week cycles until disease progression, death or discontinuation. A dose modification protocol was used for adverse event (AE) management. All patients were required to receive ondansetron 8 mg (or equivalent) prior to the first dose of study drug and 2-3 times daily as needed. Other antiemetics (olanzapine, NK-1R antagonists) were permitted for patients intolerant to or with persistent nausea. Supportive measures were provided at the discretion of the investigator and may have included intravenous fluids, hematopoietic growth factors, transfusions, and/or appetite stimulants (olanzapine, megesterol acetate).
The primary endpoint was Overall Response Rate (ORR) adjudicated by the appointed Independent Review Committee (IRC). Secondary endpoints included duration of response (DOR), clinical benefit rate (CBR), progression-free survival (PFS) and OS (Overall Survival). Disease-specific assessments were conducted at baseline, day 1 of each treatment cycle, and at the time of disease progression or suspected response. High-risk cytogenetics included del(17p), t(4;14), t(14;16), and gain(1q) chromosomal abnormalities by fluorescent in situ hybridization (FISH). Quality of life was assessed using the Functional Assessment of Cancer Therapy-Multiple Myeloma (FACT-MM) patient-reported outcome questionnaire. Safety and tolerability were assessed through history, physical exam, laboratory assessments and 12-lead electrocardiogram. Adverse events (AEs) were graded according to the NCI CTCAE v4.03.
The sample size was based on assumptions for penta-exposed, triple-class-refractory MM using a minimal threshold for ORR of 10%. For the primary efficacy analysis, a sample size of 122 patients allowed for a one-sided test at α=0.025 to detect an ORR of ≥20% against the threshold ORR of 10% with 90% power. The modified intention-to-treat (mITT) population was used for the primary efficacy analysis, comprised of all enrolled patients who met all eligibility criteria or received a waiver from the Sponsor to enroll in the trial and received at least 1 dose of selinexor plus dexamethasone. The safety population included all patients who received at least 1 dose of study drug. The primary analysis used a 2-sided, exact 95% confidence interval, calculated for the ORR among the mITT population, with statistical significance declared if the lower bound of this interval was >10%. […] Summary statistics for continuous variables minimally included: n (number), mean, standard deviation (SD), minimum, median, and maximum. For categorical variables, frequencies and percentages are presented. For time-to-event variables, the Kaplan-Meier method was used for descriptive summaries.

[2] = test system: MM refractory to either 4 or 5 drugs (quad- and penta-refractory); experiment: phase 2 STORM study Part 1; assay type: in vivo, human; details: Selinexor 80 mg in combination with dexamethasone 20 mg, 2 dosing schedules; quad- and penta-refractory MM patients
Experimental: Selinexor 80 mg in combination with dexamethasone 20 mg administered using 2 dosing schedules was studied in patients with MM refractory to either 4 or 5 drugs (quad- and penta-refractory) in Part 1 of the phase 2 STORM (Selinexor Treatment Of Refractory Myeloma) study. Median overall response rate (ORR) was 21% in this heterogeneous population. Based on these findings, the activity of selinexor 80 mg administered twice-weekly was examined in a more uniform population in the pivotal STORM Part 2 study.

[3] = test system: bortezomib-refractory disease; details: cited from earlier work
quad-refractory myeloma = details: pivotal phase 2 study; cited from earlier work
refractory MM = details: expansion cohort (n=15) of the phase 1 monotherapy study; cited from earlier work
[4] = selinexor 80 mg + dexamethasone 20 mg twice weekly
[5] = selinexor 80 mg + dexamethasone 20 mg twice weekly, % of mITT patients
[6] = selinexor 80 mg + dexamethasone 20 mg twice weekly, % of patients

O=C(/C=C\n1cnc(-c2cc(C(F)(F)F)cc(C(F)(F)F)c2)n1)NNc1cnccn1 [selinexor, Selinexor]
discontinuation because of AEs (unrelated and related) ([1]; most common reasons for discontinuation): 32.5% | Overall response rate (ORR) ([1]; oral selinexor 80 mg + dexamethasone 20 mg, days 1 and 3 weekly, mITT population (122 patients), IRC adjudicated): 26.2% | CBR (≥minimal response), clinical benefit rate [1, 4]: 39.3% | OS (Overall Survival) [1, 4]: 8.6 months | PFS (progression-free survival) [1, 4]: 3.7 months | median DOR (duration of response) [1, 4]: 4.4 months | partial responses [1, 5]: 19.7% | stringent complete responses [1, 5]: 1.6% | very good partial responses [1, 5]: 4.9% | Minimal response [1, 6]: 13.1% | progressive disease or disease not evaluable [1, 6]: 21.3% | stable disease [1, 6]: 39.3% | response of patients with relapse after CAR-T ([1]; selinexor 80 mg + dexamethasone 20 mg twice weekly, both (2) patients with prior CAR-T therapy): partial response | Median time to partial response or better ([1]; selinexor 80 mg + dexamethasone 20 mg twice weekly, range 1-14 weeks): 4.1 weeks | median OS in patients who achieved a partial or minimal response or better ([1]; selinexor 80 mg + dexamethasone 20 mg twice weekly, responder subgroup): 15.6 months | efficacy across subgroups ([1]; subgroups including patients with high-risk cytogenetics (53% of the patients)): consistent across subgroups | Overall response rate (ORR) [2]: 21%

CC(C)C[C@H](NC(=O)[C@H](CCc1ccccc1)NC(=O)CN1CCOCC1)C(=O)N[C@@H](Cc1ccccc1)C(=O)N[C@@H](CC(C)C)C(=O)[C@@]1(C)CO1 [carfilzomib]
ORR [3]: 18.9%

daratumumab
ORR (quad-refractory myeloma): 21.2% | ORR (refractory MM): 36%
